Measured values reported in ChEMBL document CHEMBL1153777, “Substituted benzothiadizine inhibitors of Hepatitis C virus polymerase” (Bioorg Med Chem Lett, 2009).

How the values were obtained:
Hepatitis C virus [1] = assay: Inhibition of HCV1b Cdelta-21-truncated NS5B by enzymatic assay; assay type: functional, Hepatitis C virus subtype 1b
Hepatitis C virus [2] = assay: Antiviral activity against HCV 1b after 72 hrs by replicon assay; assay type: functional, organism-based, Hepacivirus hominis; conditions: genotype 1b
Hepatitis C virus [3] = assay: Antiviral activity against HCV 1b after 72 hrs by replicon assay in presence of HSA and AAG; assay type: functional, organism-based, Hepacivirus hominis; conditions: genotype 1b
[4] = Bioavailability in rat at 4 mg/kg, po and 4 mg/kg, iv; assay type: ADME, organism-based; conditions: in vivo
[5] = Half life in rat at 4 mg/kg, po and 4 mg/kg, iv; assay type: ADME, organism-based; conditions: in vivo
Cytochrome P450 2C9 = Cytochrome P450 2C9 (Homo sapiens, UniProt P11712); assay: Inhibition of CYP2C9; assay type: ADME
Sequence of Cytochrome P450 2C9 (P11712 whole entry): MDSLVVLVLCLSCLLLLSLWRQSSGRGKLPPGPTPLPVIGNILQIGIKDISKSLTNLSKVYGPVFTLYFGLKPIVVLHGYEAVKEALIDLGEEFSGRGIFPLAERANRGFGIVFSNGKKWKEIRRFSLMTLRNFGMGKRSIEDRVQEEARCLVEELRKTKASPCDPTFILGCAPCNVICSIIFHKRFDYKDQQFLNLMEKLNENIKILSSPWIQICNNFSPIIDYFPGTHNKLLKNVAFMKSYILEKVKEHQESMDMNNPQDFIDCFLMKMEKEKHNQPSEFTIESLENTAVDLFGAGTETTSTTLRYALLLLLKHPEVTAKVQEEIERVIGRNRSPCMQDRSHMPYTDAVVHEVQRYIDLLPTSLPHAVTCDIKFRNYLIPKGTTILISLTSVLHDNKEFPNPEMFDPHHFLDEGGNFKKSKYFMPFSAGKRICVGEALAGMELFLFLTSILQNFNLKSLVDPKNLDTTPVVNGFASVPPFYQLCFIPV

Homo sapiens = species on record: Homo sapiens; assay: Protein binding in human plasma by equilibrium dialysis; conditions: read-out: PPB (converted)

IC50 (Hepatitis C virus [1]) [µM] | IC50 (Hepatitis C virus [2]) [µM] | IC50 (Hepatitis C virus [3]) [µM] | bioavailability [4] [%] | half-life [5] [h] | IC50 (Cytochrome P450 2C9) [µM] | fraction unbound (Homo sapiens) | SMILES
0.006 | 0.383 |  |  |  |  |  | CC(C)CCn1c(=O)c(C2=NS(=O)(=O)c3cc(C(N)=O)ccc3N2)c(O)c2ccccc21
0.008 | 1.6 |  |  |  |  |  | CC(C)CCn1c(=O)c(C2=NS(=O)(=O)c3cc(CC(=O)O)ccc3N2)c(O)c2ccccc21
0.007 | 0.081 |  |  |  |  |  | CC(C)CCn1c(=O)c(C2=NS(=O)(=O)c3cc(OCC#N)ccc3N2)c(O)c2ccccc21
0.045 | > 20 |  |  |  |  |  | CC(C)CCn1c(=O)c(C2=NS(=O)(=O)c3cc(C(=O)O)ccc3N2)c(O)c2ccccc21
0.065 | 2.62 |  |  |  |  |  | COC(=O)c1ccc2c(c1)S(=O)(=O)N=C(c1c(O)c3ccccc3n(CCC(C)C)c1=O)N2
0.05 | 1.78 |  |  |  |  |  | Cc1ccc2c(c1)S(=O)(=O)N=C(c1c(O)c3ccccc3n(CCC(C)C)c1=O)N2
0.142 | 1.25 |  |  |  |  |  | CC(C)CCn1c(=O)c(C2=NS(=O)(=O)c3cc(N(C)C)ccc3N2)c(O)c2ccccc21
0.057 | 0.486 |  |  |  |  |  | CC(C)CCn1c(=O)c(C2=NS(=O)(=O)c3cc(C#N)ccc3N2)c(O)c2ccccc21
0.03 | > 20 |  |  |  |  |  | CC(C)CCn1c(=O)c(C2=NS(=O)(=O)c3cc(O)ccc3N2)c(O)c2ccccc21
0.102 | > 20 |  |  |  |  |  | CC(C)CCn1c(=O)c(C2=NS(=O)(=O)c3cc(C(=O)N(C)C)ccc3N2)c(O)c2ccccc21
0.142 | 0.568 |  |  |  |  |  | CC(C)CCn1c(=O)c(C2=NS(=O)(=O)c3cc(CCN)ccc3N2)c(O)c2ccccc21
0.685 |  |  |  |  |  |  | CC(C)CCn1c(=O)c(C2=NS(=O)(=O)c3cc(CCN(C)C)ccc3N2)c(O)c2ccccc21
0.023 | 0.815 |  |  |  |  |  | COC(=O)Cc1ccc2c(c1)S(=O)(=O)N=C(c1c(O)c3ccccc3n(CCC(C)C)c1=O)N2
0.076 | 2.32 | > 50 |  |  |  |  | CC(C)CCn1c(=O)c(C2=NS(=O)(=O)c3cc(Cl)ccc3N2)c(O)c2ccccc21
> 10 |  |  |  |  |  |  | CC(C)CCn1c(=O)c(C2=NS(=O)(=O)c3cc(I)ccc3N2)c(O)c2ccccc21
0.127 | 5.2 |  |  |  |  |  | CC(=O)c1ccc2c(c1)S(=O)(=O)N=C(c1c(O)c3ccccc3n(CCC(C)C)c1=O)N2
0.173 | 5.14 |  |  |  |  |  | CC(C)CCn1c(=O)c(C2=NS(=O)(=O)c3cc(Br)ccc3N2)c(O)c2ccccc21
0.238 | > 20 |  |  |  |  |  | CC(C)CCn1c(=O)c(C2=NS(=O)(=O)c3cc([N+](=O)[O-])ccc3N2)c(O)c2ccccc21
0.055 | 1.39 |  |  |  |  |  | COc1ccc2c(c1)S(=O)(=O)N=C(c1c(O)c3ccccc3n(CCC(C)C)c1=O)N2
0.006 | 0.015 | 2.65 |  |  |  |  | CC(C)CCn1c(=O)c(C2=NS(=O)(=O)c3cc(CC(N)=O)ccc3N2)c(O)c2ccccc21
0.013 | 0.218 | 45 |  |  |  |  | CC(C)CCn1c(=O)c(C2=NS(=O)(=O)c3cc(N)ccc3N2)c(O)c2ccccc21
0.026 | 0.334 |  |  |  |  |  | CC(C)CCn1c(=O)c(C2=NS(=O)(=O)c3cc(F)ccc3N2)c(O)c2ccccc21

Continued, compound first:

SMILES | IC50 (Hepatitis C virus [1]) [µM] | IC50 (Hepatitis C virus [2]) [µM] | IC50 (Hepatitis C virus [3]) [µM] | bioavailability [4] [%] | half-life [5] [h] | IC50 (Cytochrome P450 2C9) [µM] | fraction unbound (Homo sapiens)
O=C(O)COc1ccc2c(c1)S(=O)(=O)N=C(c1c(O)c3cc(F)ccc3n(CCC3CC3)c1=O)N2 | < 0.005 | 2.29 |  |  |  |  | 
NC(=O)CCc1ccc2c(c1)S(=O)(=O)N=C(c1c(O)c3cc(F)ccc3n(CCC3CC3)c1=O)N2 | 0.005 | 0.208 | > 50 |  |  |  | 
NC(=O)COc1ccc2c(c1)S(=O)(=O)NC(c1c(O)c3cc(F)ccc3n(CCC3CC3)c1=O)=N2 | < 0.005 | 0.002 | 1.48 | 33 | 1 | 5.4 | 0.001
N#CCOc1ccc2c(c1)S(=O)(=O)N=C(c1c(O)c3cc(F)ccc3n(CCC3CC3)c1=O)N2 | < 0.005 | 0.008 | 2.39 |  |  |  | 
O=c1c(C2=Nc3ccccc3S(=O)(=O)N2)c(O)c2cc(F)ccc2n1CCC1CC1 |  | 0.038 | 24.5 | 44 | 3 | 0.84 | 
O=c1c(C2=NS(=O)(=O)c3cc(CO)ccc3N2)c(O)c2cc(F)ccc2n1CCC1CC1 | 0.017 | 0.233 |  |  |  |  | 
CC(C)(Oc1ccc2c(c1)S(=O)(=O)N=C(c1c(O)c3cc(F)ccc3n(CCC3CC3)c1=O)N2)C(N)=O | 0.009 | 0.272 | 5.36 |  |  |  | 
CC(C)CCn1c(=O)c(C2=NS(=O)(=O)c3cc(CC#N)ccc3N2)c(O)c2cc(F)ccc21 | 0.005 | 0.029 | 8 |  |  |  | 
C[C@H](Oc1ccc2c(c1)S(=O)(=O)N=C(c1c(O)c3cc(F)ccc3n(CCC3CC3)c1=O)N2)C(N)=O | 0.012 | 0.004 | 50 |  |  |  | 
COc1ccc2c(c1)S(=O)(=O)N=C(c1c(O)c3cc(F)ccc3n(CCC3CC3)c1=O)N2 | 0.024 | 0.342 | > 50 |  |  |  | 
CNC(=O)COc1ccc2c(c1)S(=O)(=O)N=C(c1c(O)c3cc(F)ccc3n(CCC3CC3)c1=O)N2 | < 0.005 | 0.009 | 4.74 |  |  |  | 
NC(=O)/C=C/c1ccc2c(c1)S(=O)(=O)N=C(c1c(O)c3cc(F)ccc3n(CCC3CC3)c1=O)N2 | 0.202 | 0.039 | 50 |  |  |  | 
CN(C)C(=O)COc1ccc2c(c1)S(=O)(=O)N=C(c1c(O)c3cc(F)ccc3n(CCC3CC3)c1=O)N2 | 0.012 | 0.211 |  |  |  |  | 
C[C@@H](Oc1ccc2c(c1)S(=O)(=O)N=C(c1c(O)c3cc(F)ccc3n(CCC3CC3)c1=O)N2)C(N)=O | < 0.005 | 0.003 | 1.02 | 35 | 0.7 | 1.7 | 0.002
CC(C)CCn1c(=O)c(C2=NS(=O)(=O)c3cc(CC(N)=O)ccc3N2)c(O)c2cc(F)ccc21 | 0.018 | 0.013 | 3.1 |  |  |  | 
CC(C)(Oc1ccc2c(c1)S(=O)(=O)N=C(c1c(O)c3cc(F)ccc3n(CCC3CC3)c1=O)N2)C(=O)O | 0.022 | 3.74 |  |  |  |  | 
O=c1c(C2=NS(=O)(=O)c3cc(OCn4cnnn4)ccc3N2)c(O)c2cc(F)ccc2n1CCC1CC1 | 0.006 | 2 |  |  |  |  | 
NC(=O)OCc1ccc2c(c1)S(=O)(=O)N=C(c1c(O)c3cc(F)ccc3n(CCC3CC3)c1=O)N2 | 0.036 | 0.048 |  |  |  |  | 
O=c1c(C2=NS(=O)(=O)c3cc(O)ccc3N2)c(O)c2cc(F)ccc2n1CCC1CC1 | < 0.005 | 0.057 | 50 |  |  |  | 
